Results published in patent US10112937B2, “P2X7 modulators and methods of use” (Janssen Pharmaceutica NV, priority 2013, dated 2018).

Molecular target: human P2X7 (Homo sapiens (Human), UniProt Q99572)
Assay: P2X7 antagonism in human PBMCs (IL-1β release after LPS + Bz-ATP, ELISA)
Format: cell-based
Details: human PBMCs; for PBMC 1 μM (% control): test compound 1 μM

human P2X7, sequence (Q99572 whole entry): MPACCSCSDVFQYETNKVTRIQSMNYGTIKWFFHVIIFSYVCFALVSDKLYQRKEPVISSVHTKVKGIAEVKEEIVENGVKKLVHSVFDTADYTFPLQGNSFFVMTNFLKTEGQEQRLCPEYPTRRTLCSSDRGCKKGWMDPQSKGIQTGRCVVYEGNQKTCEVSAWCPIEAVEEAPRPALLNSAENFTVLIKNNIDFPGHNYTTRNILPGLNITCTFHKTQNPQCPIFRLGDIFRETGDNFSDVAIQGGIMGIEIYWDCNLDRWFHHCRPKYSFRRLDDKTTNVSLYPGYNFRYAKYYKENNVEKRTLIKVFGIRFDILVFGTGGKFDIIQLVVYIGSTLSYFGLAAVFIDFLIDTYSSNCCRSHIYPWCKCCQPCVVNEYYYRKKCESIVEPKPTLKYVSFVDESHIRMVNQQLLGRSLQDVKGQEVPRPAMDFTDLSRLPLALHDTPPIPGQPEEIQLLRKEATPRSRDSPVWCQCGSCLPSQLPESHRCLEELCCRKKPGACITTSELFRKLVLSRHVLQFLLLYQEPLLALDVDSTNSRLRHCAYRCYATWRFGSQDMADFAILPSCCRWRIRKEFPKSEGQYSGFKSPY

| Structure (SMILES) | PBMC 10 μM (% control) (test compound 10 μM) | also measured |
| --- | --- | --- |
| Cc1cncc(-n2nnc3c2CCN(C(=O)c2cccc(Cl)c2Cl)C3C)n1 (stereo not shown) [Example 180, (2,3-dichlorophenyl)(4-methyl-1-(6-methylpyrazin-2-yl)-6,7-dihydro-1H-[1,2,3]triazolo[4,5-c]pyridin-5(4H)-yl)methanone] | −3.7 % control |  |
| O=C(c1cccc(C(F)(F)F)c1Cl)N1CCc2c(nc(C(F)(F)F)n2-c2ccccc2)C1 [Example 38, (2-Chloro-3-(trifluoromethyl)phenyl)(1-phenyl-2-(trifluoromethyl)-6,7-dihydro-1H-imidazo[4,5-c]pyridin-5(4H)-yl)methanone] | −0.3 % control |  |
| CC1c2ncn(-c3ccc(F)cn3)c2CCN1C(=O)c1cccc(C(F)(F)F)c1Cl (stereo not shown) [Example 11, (2-Chloro-3-(trifluoromethyl)phenyl)(1-(5-fluoropyridin-2-yl)-4-methyl-6,7-dihydro-1H-imidazo[4,5-c]pyridin-5(4H)-yl)methanone] | 3.7 % control |  |
| CCn1ccc(-n2nnc3c2C[C@H](C)N(C(=O)c2ccnc(C(F)(F)F)c2Cl)C3)n1 [Example 410, (S)-(3-chloro-2-(trifluoromethyl)pyridin-4-yl)(1-(1-ethyl-1H-pyrazol-3-yl)-6-methyl-6,7-dihydro-1H-[1,2,3]triazolo[4,5-c]pyridin-5(4H)-yl)methanone] |  | PBMC 10 μM (% control) (10 μM test compound, LPS + Bz-ATP): −1.5 % control |
| Cn1nc2c(c1-c1ccncc1)CCN(C(=O)c1cccc(Cl)c1Cl)C2 [Example 328, (2,3-dichlorophenyl)(2-methyl-3-(pyridin-4-yl)-4,5-dihydro-2H-pyrazolo[3,4-c]pyridin-6(7H)-yl)methanone] |  | PBMC 1 μM (% control): 88.0 % control |
| O=C(c1cccc(C(F)(F)F)c1Cl)N1C=Cc2c(ncn2-c2cnccn2)C1 [Example 54, 5-{[2-Chloro-3-(trifluoromethyl)phenyl]carbonyl}-1-pyrazin-2-yl-4,5-dihydro-1H-imidazo[4,5-c]pyridine] |  | PBMC 1 μM (% control): 8.6 % control |
| O=C(c1cccc(C(F)(F)F)c1Cl)N1C=Cc2c(nnn2-c2cnccn2)C1 [Example 89, 5-{[2-Chloro-3-(trifluoromethyl)phenyl]carbonyl}-1-pyrazin-2-yl-4,5-dihydro-1H-[1,2,3]triazolo[4,5-c]pyridine] |  | PBMC 1 μM (% control): −1.5 % control |
| O=C(c1cccc(C(F)(F)F)c1Cl)N1CCc2c(nnn2-c2cccc(F)n2)C1 [Example 135, (2-Chloro-3-(trifluoromethyl)phenyl)(1-(6-fluoropyridin-2-yl)-6,7-dihydro-1H-[1,2,3]triazolo[4,5-c]pyridin-5(4H)-yl)methanone] | 1.7 % control |  |
| C[C@H]1Cc2c(nnn2-c2cc(F)ccn2)CN1C(=O)c1cccc(C(F)(F)F)c1Cl (single isomer, unassigned) [Example 199, (6S*)-5-{[2-Chloro-3-(trifluoromethyl)phenyl]carbonyl}-1-(4-fluoropyridin-2-yl)-6-methyl-4,5,6,7-tetrahydro-1H-[1,2,3]triazolo[4,5-c]pyridine] | 0.0 % control |  |
| CC1c2nnn(-c3ncc(F)cn3)c2CCN1C(=O)c1cccc(C(F)(F)F)c1F (stereo not shown) [Example 175, (2-fluoro-3-(trifluoromethyl)phenyl)(1-(5-fluoropyrimidin-2-yl)-4-methyl-6,7-dihydro-1H-[1,2,3]triazolo[4,5-c]pyridin-5(4H)-yl)methanone] | 4.5 % control |  |
| O=C(c1ccc(F)cc1Cl)N1CCc2c(nnn2-c2ccccn2)C1 [Example 117, (2-Chloro-4-fluorophenyl)(1-(pyridin-2-yl)-6,7-dihydro-1H-[1,2,3]triazolo[4,5-c]pyridin-5(4H)-yl)methanone] | 4.3 % control |  |
| Cn1nc2c(c1-c1ccc(F)cc1)CCN(C(=O)c1cccc(C(F)(F)F)c1Cl)C2 [Example 105, 6-{[2-Chloro-3-(trifluoromethyl)phenyl]carbonyl}-3-(4-fluorophenyl)-2-methyl-4,5,6,7-tetrahydro-2H-pyrazolo[3,4-c]pyridine] |  | PBMC 1 μM (% control): 51.0 % control |
| C[C@H]1c2nnn(-c3cccc(F)n3)c2CCN1C(=O)c1cccc(C(F)(F)F)c1Cl (single isomer, unassigned) [Example 147, (S*)-(2-Chloro-3-(trifluoromethyl)phenyl)(1-(6-fluoropyridin-2-yl)-4-methyl-6,7-dihydro-1H-[1,2,3]triazolo[4,5-c]pyridin-5(4H)-yl)methanone] | −8.9 % control |  |
| CC1c2ncn(-c3ccccn3)c2CCN1C(=O)c1cccc(C(F)(F)F)c1Cl (stereo not shown) [Example 17, (2-Chloro-3-(trifluoromethyl)phenyl)(4-methyl-1-(pyridin-2-yl)-6,7-dihydro-1H-imidazo[4,5-c]pyridin-5(4H)-yl)methanone] |  | PBMC 1 μM (% control): 6.5 % control |

Further lines, with some results ahead:

| PBMC 10 μM (% control) (test compound 10 μM) | Structure (SMILES) | also measured |
| --- | --- | --- |
| −0.7 % control | Cc1ccnc(-n2nnc3c2CCN(C(=O)c2ccnc(C(F)(F)F)c2Cl)C3C)c1 (stereo not shown) [Example 358, (3-chloro-2-(trifluoromethyl)pyridin-4-yl)(4-methyl-1-(4-methylpyridin-2-yl)-6,7-dihydro-1H-[1,2,3]triazolo[4,5-c]pyridin-5(4H)-yl)methanone] |  |
| 64.7 % control | Cc1cc(-n2nnc3c2CCN(C(=O)c2ccnc(C(F)(F)F)c2F)C3C)ncn1 (stereo not shown) [Example 397, (3-fluoro-2-(trifluoromethyl)pyridin-4-yl)(4-methyl-1-(6-methylpyrimidin-4-yl)-6,7-dihydro-1H-[1,2,3]triazolo[4,5-c]pyridin-5(4H)-yl)methanone] |  |
| 7.1 % control | O=C(c1ccc(Cl)cc1Cl)N1CCc2c(nnn2-c2ncccn2)C1 [Example 257, (2,4-dichlorophenyl)(1-(pyrimidin-2-yl)-6,7-dihydro-1H-[1,2,3]triazolo[4,5-c]pyridin-5(4H)-yl)methanone] |  |
| −8.3 % control | CC1c2nnn(-c3ncccn3)c2CCN1C(=O)c1ccc(Cl)cc1F (stereo not shown) [Example 275, (4-chloro-2-fluorophenyl)(4-methyl-1-(pyrimidin-2-yl)-6,7-dihydro-1H-[1,2,3]triazolo[4,5-c]pyridin-5(4H)-yl)methanone] |  |
| −2.8 % control | Cc1cccc(-n2nnc3c2CCN(C(=O)c2cccc(C(F)(F)F)c2Cl)C3C)n1 (stereo not shown) [Example 302, (2-chloro-3-(trifluoromethyl)phenyl)(4-methyl-1-(6-methylpyridin-2-yl)-6,7-dihydro-1H-[1,2,3]triazolo[4,5-c]pyridin-5(4H)-yl)methanone] |  |
| 87.3 % control | Cc1cc(-n2nnc3c2CCN(C(=O)c2cccc(C(F)(F)F)c2Cl)[C@H]3C)ncc1F (single isomer, unassigned) [Example 383, (S*)-(2-chloro-3-(trifluoromethyl)phenyl)(1-(5-fluoro-4-methylpyridin-2-yl)-4-methyl-6,7-dihydro-1H-[1,2,3]triazolo[4,5-c]pyridin-5(4H)-yl)methanone] |  |
| 74.5 % control | Cc1cc(-n2nnc3c2CCN(C(=O)c2ccnc(C(F)(F)F)c2F)[C@H]3C)ncc1F (single isomer, unassigned) [Example 369, (S*)-(3-fluoro-2-(trifluoromethyl)pyridin-4-yl)(1-(5-fluoro-4-methylpyridin-2-yl)-4-methyl-6,7-dihydro-1H-[1,2,3]triazolo[4,5-c]pyridin-5(4H)-yl)methanone] |  |
| −0.8 % control | Cc1ccnc(-n2nnc3c2CCN(C(=O)c2cccc(C(F)(F)F)c2Cl)C3C)n1 (stereo not shown) [Example 252, (2-Chloro-3-(trifluoromethyl)phenyl)(4-methyl-1-(4-methylpyrimidin-2-yl)-6,7-dihydro-1H-[1,2,3]triazolo[4,5-c]pyridin-5(4H)-yl)methanone] |  |
| 3.2 % control | C[C@H]1Cc2c(nnn2-c2ncc(F)cn2)CN1C(=O)c1cccc(C(F)(F)F)c1 [Example 304, (S)-(1-(5-fluoropyrimidin-2-yl)-6-methyl-6,7-dihydro-1H-[1,2,3]triazolo[4,5-c]pyridin-5(4H)-yl)(3-(trifluoromethyl)phenyl)methanone] |  |
| −1.8 % control | Cc1cc(C)nc(-n2nnc3c2CCN(C(=O)c2cccc(C(F)(F)F)c2Cl)C3C)c1 (stereo not shown) [Example 300, (2-chloro-3-(trifluoromethyl)phenyl)(1-(4,6-dimethylpyridin-2-yl)-4-methyl-6,7-dihydro-1H-[1,2,3]triazolo[4,5-c]pyridin-5(4H)-yl)methanone] |  |
| 5.8 % control | C[C@@H]1Cc2c(nnn2-c2ccc(F)cc2)[C@H](C)N1C(=O)c1cccc(C(F)(F)F)c1Cl [Example 286, (2-chloro-3-(trifluoromethyl)phenyl)((4S,6R)-1-(4-fluorophenyl)-4,6-dimethyl-6,7-dihydro-1H-[1,2,3]triazolo[4,5-c]pyridin-5(4H)-yl)methanone] |  |
| −7.1 % control | Cc1ccnc(-n2nnc3c2CCN(C(=O)c2ccnc(C(F)(F)F)c2Cl)[C@H]3C)c1 (single isomer, unassigned) [Example 360, (S*)-(3-chloro-2-(trifluoromethyl)pyridin-4-yl)(4-methyl-1-(4-methylpyridin-2-yl)-6,7-dihydro-1H-[1,2,3]triazolo[4,5-c]pyridin-5(4H)-yl)methanone] |  |
| 77.7 % control | C[C@@H]1Cc2c(nnn2-c2ccn[nH]2)CN1C(=O)c1cccc(C(F)(F)F)c1F (single isomer, unassigned) [Example 348, (R*)-(2-fluoro-3-(trifluoromethyl)phenyl)(6-methyl-1-(1H-pyrazol-5-yl)-6,7-dihydro-1H-[1,2,3]triazolo[4,5-c]pyridin-5(4H)-yl)methanone] |  |
| 1.4 % control | COc1cccnc1-n1nnc2c1CCN(C(=O)c1cccc(C(F)(F)F)c1Cl)C2C (stereo not shown) [Example 260, (2-Chloro-3-(trifluoromethyl)phenyl)(1-(3-methoxypyridin-2-yl)-4-methyl-6,7-dihydro-1H-[1,2,3]triazolo[4,5-c]pyridin-5(4H)-yl)methanone] |  |
